Assay results published in ChEMBL document CHEMBL4041467, “Synthesis of novel 15-membered 8a-azahomoerythromycin A acylides: Consequences of structural modification at the C-3 and C-6 position on antibacterial activity” (Eur J Med Chem, 2017).
Converted amounts (≈) assume the structure as drawn.

Experiments:
[1] = test system: Streptococcus pneumoniae; experiment: Antibacterial activity against constitutively macrolide/lincosamide/streptogramin B-resistant Streptococcus pneumoniae by agar microdilution method; assay type: functional
[2] = Protein binding in rat plasma at 1 ug/ml by LC-MS/MS analysis; assay type: ADME, cell-free; conditions: read-out: PPB (converted)
[3] = test system: Haemophilus influenzae; experiment: Antibacterial activity against Haemophilus influenzae by agar microdilution method; assay type: functional
[4] = Metabolic stability in human liver microsomes assessed as parent compound remaining at 1 uM after 60 mins in presence of NADP by LC-MS/MS analysis; assay type: ADME, microsome; conditions: read-out: Stability
[5] = Cmax in Han Wistar rat at 20 mg/kg, po by LC-MS/MS analysis; assay type: ADME, organism-based; parameters: dose 20 mg/kg, route oral; conditions: in vivo
[6] = test system: Streptococcus pyogenes; experiment: Antibacterial activity against Mef-mediated macrolide efflux resistant Streptococcus pyogenes by agar microdilution method; assay type: functional
[7] = Oral bioavailability in Han Wistar rat at 20 mg/kg by LC-MS/MS analysis; assay type: ADME, organism-based; conditions: in vivo
[8] = AUC(0 to infinity) in Han Wistar rat at 10 mg/kg, iv by LC-MS/MS analysis; assay type: ADME, organism-based; parameters: dose 10 mg/kg, route intravenous, time infinity; conditions: in vivo
[9] = test system: Rattus norvegicus; experiment: Unbound clearance in Han Wistar rat at 10 mg/kg, iv by LC-MS/MS analysis; assay type: ADME, organism-based; conditions: in vivo
[10] = Metabolic stability in rat liver microsomes assessed as parent compound remaining at 1 uM after 60 mins in presence of NADP by LC-MS/MS analysis; assay type: ADME, microsome; conditions: read-out: Stability
[11] = test system: Streptococcus pyogenes; experiment: Antibacterial activity against erythromycin susceptible Streptococcus pyogenes by agar microdilution method; assay type: functional
[12] = test system: Streptococcus pneumoniae; experiment: Antibacterial activity against erythromycin susceptible Streptococcus pneumoniae infected in mouse assessed as increase in mouse survival administered orally 1 hr post infection; assay type: functional; conditions: po
[13] = Cmax in Han Wistar rat at 10 mg/kg, iv by LC-MS/MS analysis; assay type: ADME, organism-based; parameters: dose 10 mg/kg, route intravenous; conditions: in vivo
[14] = Terminal half life in Han Wistar rat at 10 mg/kg, iv by LC-MS/MS analysis; assay type: ADME, organism-based; conditions: in vivo, read-out: beta t1/2 (converted)
[15] = Volume of distribution at steady state in Han Wistar rat at 10 mg/kg, iv by LC-MS/MS analysis; assay type: ADME, organism-based; conditions: in vivo, read-out: Vdss
[16] = test system: Liver; experiment: Intrinsic clearance in rat liver microsomes at 1 uM after 60 mins in presence of NADP by LC-MS/MS analysis; assay type: ADME, microsome; conditions: 1 h
[17] = Tmax in Han Wistar rat at 20 mg/kg, po by LC-MS/MS analysis; assay type: ADME, organism-based; conditions: in vivo
[18] = Metabolic stability in mouse liver microsomes assessed as parent compound remaining at 1 uM after 60 mins in presence of NADP by LC-MS/MS analysis; assay type: ADME, microsome; conditions: read-out: Stability
[19] = Protein binding in mouse plasma at 1 ug/ml by LC-MS/MS analysis; assay type: ADME, cell-free; conditions: read-out: PPB (converted)
[20] = test system: Staphylococcus aureus; experiment: Potency index, ratio of clarithromycin ED50 to compound ED50 for erythromycin susceptible Staphylococcus aureus infected in mouse; assay type: functional
[21] = test system: Streptococcus pneumoniae; experiment: Antibacterial activity against Mef-mediated macrolide efflux resistant Streptococcus pneumoniae by agar microdilution method; assay type: functional
[22] = AUC(0 to t) in Han Wistar rat at 10 mg/kg, iv by LC-MS/MS analysis; assay type: ADME, organism-based; conditions: in vivo
[23] = test system: Liver; experiment: Intrinsic clearance in mouse liver microsomes at 1 uM after 60 mins in presence of NADP by LC-MS/MS analysis; assay type: ADME, microsome; conditions: 1 h
[24] = test system: Staphylococcus aureus; experiment: Antibacterial activity against constitutively macrolide/lincosamide/streptogramin B-resistant Staphylococcus aureus by agar microdilution method; assay type: functional
[25] = Fraction unbound in Han Wistar rat plasma at 10 mg/kg, iv by LC-MS/MS analysis; assay type: ADME, organism-based
[26] = AUC(0 to infinity) in Han Wistar rat at 20 mg/kg, po by LC-MS/MS analysis; assay type: ADME, organism-based; parameters: dose 20 mg/kg, time infinity, route oral; conditions: in vivo
[27] = test system: Staphylococcus aureus; experiment: Antibacterial activity against erythromycin susceptible Staphylococcus aureus by agar microdilution method; assay type: functional
[28] = AUC(0 to t) in Han Wistar rat at 20 mg/kg, po by LC-MS/MS analysis; assay type: ADME, organism-based; conditions: in vivo
[29] = test system: Streptococcus pyogenes; experiment: Antibacterial activity against constitutively macrolide/lincosamide/streptogramin B-resistant Streptococcus pyogenes by agar microdilution method; assay type: functional
[30] = test system: Streptococcus pneumoniae; experiment: Potency index, ratio of clarithromycin ED50 to compound ED50 for erythromycin susceptible Streptococcus pneumoniae infected in mouse; assay type: functional
[31] = Clearance in Han Wistar rat at 10 mg/kg, iv by LC-MS/MS analysis; assay type: ADME, organism-based; conditions: in vivo
[32] = Protein binding in human plasma at 1 ug/ml by LC-MS/MS analysis; assay type: ADME, cell-free; conditions: read-out: PPB (converted)
[33] = test system: Streptococcus pneumoniae; experiment: Antibacterial activity against erythromycin susceptible Streptococcus pneumoniae by agar microdilution method; assay type: functional
[34] = test system: Plasma; experiment: Stability in rat plasma at 1 uM up to 120 mins by LC-MS/MS analysis; assay type: ADME, cell-free; conditions: 2 h
[35] = test system: Staphylococcus aureus; experiment: Antibacterial activity against erythromycin susceptible Staphylococcus aureus infected in mouse assessed as increase in mouse survival administered orally 1 hr post infection; assay type: functional; conditions: po
[36] = test system: Staphylococcus aureus; experiment: Antibacterial activity against inducibly macrolide/lincosamide/streptogramin B-resistant Staphylococcus aureus by agar microdilution method; assay type: functional
[37] = test system: Liver; experiment: Intrinsic clearance in human liver microsomes at 1 uM after 60 mins in presence of NADP by LC-MS/MS analysis; assay type: ADME, microsome; conditions: 1 h

CC[C@H]1OC(=O)[C@H](C)[C@@H](OC(=O)CCNCCNc2cc3c(=O)c(C(=O)O)cn(C4CC4)c3cc2Cl)[C@H](C)[C@@H](O[C@@H]2O[C@H](C)C[C@H](N(C)C)[C@H]2O)[C@](C)(OC/C=C/c2cnc3ccccc3c2)C[C@@H](C)NC(=O)[C@H](C)[C@@H](O)[C@]1(C)O
MIC [1]: ≤ 0.125 µg/mL
fraction unbound at 1 ug/ml [2]: 0.42
MIC [3]: 1 µg/mL (≈ 0.882 µM)
remaining at 1 h, 1 µM [4]: 100%
Cmax [5]: 630 ng/mL
MIC [6]: 0.25 µg/mL (≈ 0.221 µM)
bioavailability [7]: 41.8%
AUC(0-inf) [8]: 8510 ng·h/mL
CL free [9]: 48.3 mL/min/kg
remaining at 1 h, 1 µM [10]: 100%
MIC [11]: ≤ 0.06 µg/mL
ED50 [12]: 4.5 mg/kg
Cmax [13]: 2480 ng/mL
half-life [14]: 4.3 h
Vd [15]: 6.7 L/kg
CLH [16]: < 0.6 mL/min/g
Tmax [17]: 3.3 h
remaining at 1 h, 1 µM [18]: 100%
fraction unbound at 1 ug/ml [19]: 0.3
Ratio ED50 [20]: 4
MIC [21]: ≤ 0.125 µg/mL
AUC(0-t) [22]: 4800 to 10000 ng·h/mL
CLH [23]: < 0.6 mL/min/g
MIC [24]: > 64 µg/mL
fraction unbound [25]: 0.42
AUC(0-inf) [26]: 7500 ng·h/mL
MIC [27]: ≤ 0.125 µg/mL
AUC(0-t) [28]: 2040 to 9730 ng·h/mL
MIC [29]: 4 µg/mL (≈ 3.53 µM)
Ratio ED50 [30]: 6
clearance [31]: 20.3 mL/min/kg
fraction unbound at 1 ug/ml [32]: 0.4
MIC [33]: ≤ 0.06 µg/mL
Stability [34]: Stable
ED50 [35]: 6 mg/kg
MIC [36]: 0.25 µg/mL (≈ 0.221 µM)
CLH [37]: < 0.6 mL/min/g
